# Read-outs that look alike come from different tables or passages of the source.
# Legend:
# [1] = tested on: mice; assay type: in vivo
# Source text: Male mice between the ages of 16-24 weeks were anesthetized with isoflurane (induction 4-5 vol %; maintenance 1-2 vol %), intubated with a 20G plastic IV catheter, and mechanically ventilated using a rodent ventilator (Inspira, volume-controlled, Harvard Apparatus, MA). ECG and rectal temperature were continuously monitored using a PC-based recording device (PowerLab 8/30, ADInstruments, Colorado Springs, Colo.). The animals were positioned in a right lateral decubital position on a heating pad and rectal temperature was maintained at 37° C. throughout the experiment. A PE-10 catheter was inserted into the left jugular vein for intravenous drug infusion. Using a dissecting microscope, a left-sided thoracotomy was performed in the 4th intercostal space. […] A ligature (8-0 Monosof MV-135-4, ⅜ 5 mm tapered needle, Syneture, Norwalk, Colo.) was placed around the left coronary artery (LCA) approximately 2 mm distal to the left atrial margin. The suture was fed through a short section of PE-10 tubing to form a snare to allow temporary occlusion. The LCA was occluded for 40 minutes; occlusion was confirmed by persistent ECG changes during occlusion and visual paling of the left ventricle (LV). After 40 minutes the snare was released and reperfusion was confirmed with visual hyperemia of the LV and return of the ECG changes. After 2 hours of reperfusion the LCA was re-occluded and fluorescent polymer microspheres (0.4% solution, diameter 1-10 μm; Duke Scientific Corporation, Palo Alto, Calif.) were infused via needle puncture of the LV apex. […] Heart was then excised, rinsed in normal saline, and the right and left atria were removed under the dissecting microscope. The remaining left and right ventricles were weighed and then sliced into seven sections (d=1 mm) for imaging and staining.
# Heart sections were immediately photographed with a digital camera (Canon Powershot A620) under UV light for determination of AAR. Infarct size (I) was determined by staining the heart sections in 1% 2,3,5 triphenyltetrazolium chloride (TTC) in phosphate buffer at pH 7.4 for 10 minutes, followed by 10% neutral buffered formalin (NBF) bath overnight. Pictures were taken the next day under full spectrum light. TTC stained non-infarcted myocardium red, while infarcted myocardium remained white. Both AAR and I areas were calculated in a blinded fashion using standard imaging software (Photoshop Elements 4). A calibration ruler was present in each picture to convert pixels into volume. TTC slices were volume corrected for dehydration following formalin immersion.
# The 14,15-EET was obtained from BIOMOL (Plymouth Meeting, Pa.). It was dissolved in a vehicle composed of 100% ethanol and saline (1:3), resulting in a final ethanol solution of 25%. […] SNC-162, a non-peptide δ-opioid receptor agonist, was used for comparison of the magnitude of cardioprotection found within the epoxide pathway. SNC-162 (0.1 μg/g iv over 10 minutes) was dissolved in 10% DMSO.
# [2] = target: T1, soluble epoxide hydrolase (Mus musculus, UniProt P34914); test: Soluble epoxide hydrolase activity assay in brain after systemic AUDA-BE ([3H]-tDPPO substrate); assay type: in vivo
# T1 construct: from tissue; host or cells: mouse brain (C57Bl/6), cytosolic or peroxisomal fractions
# T1 sequence (P34914 1-554): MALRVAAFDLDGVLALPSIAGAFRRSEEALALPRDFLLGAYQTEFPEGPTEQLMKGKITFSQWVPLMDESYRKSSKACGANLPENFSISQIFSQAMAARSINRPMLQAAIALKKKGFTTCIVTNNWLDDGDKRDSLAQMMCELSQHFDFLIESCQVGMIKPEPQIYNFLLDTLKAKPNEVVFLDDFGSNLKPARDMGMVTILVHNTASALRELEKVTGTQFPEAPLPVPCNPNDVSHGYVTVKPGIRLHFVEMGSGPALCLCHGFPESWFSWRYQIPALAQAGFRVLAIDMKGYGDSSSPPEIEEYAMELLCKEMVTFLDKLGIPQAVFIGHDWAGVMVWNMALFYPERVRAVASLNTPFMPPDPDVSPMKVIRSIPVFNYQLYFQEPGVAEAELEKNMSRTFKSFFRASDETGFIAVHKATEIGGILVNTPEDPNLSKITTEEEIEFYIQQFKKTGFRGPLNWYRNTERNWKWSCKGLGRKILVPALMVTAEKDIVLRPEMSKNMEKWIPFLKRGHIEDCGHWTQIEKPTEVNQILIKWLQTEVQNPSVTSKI
# Protocol: Rate of hydration of tDPPO is determined by liquid scintillation spectroscopy after differential extraction of the epoxide and diol. Briefly, cytosolic or peroxisomal fractions were incubated at 37° C. in 100 μL incubation mixtures containing sodium phosphate buffer (90 mmol/L, pH 7.4) and tDPPO (1 to 50 μmol/L in 1 μL dimethylformamide). Incubations were stopped after 5 minutes with the addition of 60 μL methanol and 200 μL isooctane. Zero-time and zero-protein incubations served as blanks. Incubations were vortexed vigorously to extract the substrate into the isooctane (the diol metabolite remains in the aqueous phase). A known aliquot of the aqueous phase was removed and added to 1 mL scintillation cocktail for scintillation counting. Extraction efficiency exceeded 91%.
# It should be noted that these sEH inhibitors are reversible transition state inhibitors. Thus, the levels of inhibition are certain to be above those detected due to dilution of the sample during work up.
structure (smiles),measurement,setting,value
"CCCCOC(=O)CCCCCCCCCCCNC(=O)NC12CC3CC(CC(C3)C1)C2 [AUDA-BE, 12-(3-adamantane-1-yl-ureido)-dodecanoic acid butyl ester]",Infarct Volume,[1]; PRO (given prior to reperfusion),15 ± 3 mm^3
same,infarct size after myocardial I/R compared to vehicle,[1]; given before ischemia or before reperfusion,significantly reduced infarct size
same,Infarct Volume,[1]; given prior to LCA occlusion (PRE),12 ± 2 mm^3
same,average brain sEH activity over 24 hours,"[2]; AUDA-BE 10 mg/kg intraperitoneally, 1, 3, 6 and 24 hours, vehicle 1.92±0.06 nmol/mg",1.56±0.13 nmol/mg protein
same,inhibition at 10 mg/kg,"[2]; mouse, ip, read-out: inhibition of brain sEH activity",≥ 20%

# Reference: patent publication US20090069418A1, “Compositions and Methods for the Treatment of Disorders Associated with Aberrant Vasodilation” (priority 2007, published 2009)
